Literature values, collected in US20250134380A1, “DETECTION AND LOCALIZATION OF DISEASE UTILIZING FLUORESCENCE SPECTRA OF EXOGENOUS FLUOROPHORES” (PREVIEW MEDICAL INC., priority 2022, published 2025).

Tested on: hyperthermia treated tumor
Conditions: animal models; hyperthermia treated vs non-hyperthermia treated tumors

- ICG uptake in hyperthermia treated tumor relative to non-hyperthermia treated tumors: 1.23 times
Structure (SMILES): CC1(C)C(/C=C/C=C/C=C/C=C2\N(CCCCS(=O)(=O)O)c3ccc4ccccc4c3C2(C)C)=[N+](CCCCS(=O)(=O)[O-])c2ccc3ccccc3c21 [ICG, Indocyanine green]
